Reference: patent publication US6541502B1, “2-(aminomethyl)-tetrahydro-9-oxa-1,3-diaza-cyclopenta[a]-naphthalenyl derivatives with antipsychotic activity” (Wyeth, priority 2001, dated 2003)
Where a name gives a salt, the structure may show the parent alone.

What was measured:
dopamine autoreceptor = target: T1, dopamine autoreceptor (Rattus norvegicus, UniProt P61169); assay: [3H]-quinpirole binding, dopamine autoreceptor affinity (D2 Quin.); conditions: homogenized rat striatal brain tissue
T1 construct: homogenized rat striatal brain tissue; from tissue; host or cells: rat striatal brain tissue homogenate
T1 sequence (P61169 whole entry): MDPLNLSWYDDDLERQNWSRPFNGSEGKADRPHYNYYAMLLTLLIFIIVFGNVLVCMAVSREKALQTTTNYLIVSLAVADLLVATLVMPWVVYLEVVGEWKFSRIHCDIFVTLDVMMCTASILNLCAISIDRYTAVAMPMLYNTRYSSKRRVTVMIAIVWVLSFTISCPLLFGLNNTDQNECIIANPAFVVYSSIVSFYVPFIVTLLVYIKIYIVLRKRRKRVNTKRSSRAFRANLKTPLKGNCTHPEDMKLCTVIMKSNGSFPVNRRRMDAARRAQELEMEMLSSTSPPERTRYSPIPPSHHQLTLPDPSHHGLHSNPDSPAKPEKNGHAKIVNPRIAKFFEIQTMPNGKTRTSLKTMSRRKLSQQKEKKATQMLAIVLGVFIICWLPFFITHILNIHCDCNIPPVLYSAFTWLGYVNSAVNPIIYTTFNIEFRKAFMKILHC
Procedure: Affinity for the dopamine autoreceptor was established by a modification of the standard experimental test procedure of Seemen and Schaus, European Journal of Pharmacology 203: 105-109, 1991, wherein homogenized rat striatal brain tissue is incubated with [^3H]-quinpirole (Quin.) at various concentrations of test compound, filtered, washed and counted in a Betaplate scintillation counter.

dopamine D2 receptor = assay: [3H]-spiperidone binding, dopamine D2 receptor (D2 Spiper); conditions: ratio of D2 Spiper IC50 to D2 Quin. IC50 (LowAg/HighAg)
Procedure: High affinity for the dopamine D2 receptor was established by the standard experimental test procedure of Fields, et al., Brain Res., 136, 5789 (1977) and Yamamura et al., ed., Neurotransmitter Receptor Binding, Chapter 9, page 171, Raven Press, N.Y. (1978) wherein homogenized limbic brain tissue is incubated with [^3H]-spiperidone at various concentrations of test compound, filtered washed, and shaken with Hydrofluor scintillation cocktail (National Diagnostics) and counted in a Packard 460 CD scintillation counter.

| melting point [°C] | IC50 (dopamine autoreceptor) [nM] | Ratio (dopamine D2 receptor) | Structure (SMILES) |
| --- | --- | --- | --- |
| 244 | – | – | FC(F)(F)c1nc2ccc3c(c2[nH]1)OC(CNCc1ccccc1)CC3 (stereo not drawn) (as salt: oxalate) [Example 1, Benzyl-(2-trifluoromethyl-1,6,7,8-tetrahydro-9-oxa-1,3-diaza-cyclopenta[a]naphthalen-8-ylmethyl)-amine] |
| – | 11.5 | 75 | FC(F)(F)c1nc2ccc3c(c2[nH]1)OC(CNCc1ccccc1)CC3 (stereo not drawn) [Example 1, Benzyl-(2-trifluoromethyl-1,6,7,8-tetrahydro-9-oxa-1,3-diaza-cyclopenta[a]naphthalen-8-ylmethyl)-amine] |
